Data taken from ChEMBL document CHEMBL1201862, “PubChem BioAssay data set” (2004).
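Protocol summary: plate cells (96-well), add compound at 5 concentrations, incubate 48 h, interpolate endpoints linearly. GI50: concentration for 50% inhibition of growth.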 Calls of active or inactive are those of the source. Rule as the data show it: active = GI50 up to about 1.1 µM and inactive = higher.

Columns and labels:
Test in all cases: inhibition of tumour cell growth, NCI panel, 48 h
UACC-257 = test system: UACC-257
NCI-H226 = test system: NCI-H226
SK-MEL-2 = test system: SK-MEL-2
OVCAR-4 = test system: OVCAR-4
MCF7 = test system: MCF7
LOX IMVI = test system: LOX IMVI
HOP-62 = test system: HOP-62
NCI-H23 = test system: NCI-H23
DU-145 = test system: DU-145
T47D = test system: T47D
HL-60 = test system: HL-60
MOLT-4 = test system: MOLT-4
ACHN = test system: ACHN
786-0 = test system: 786-0
SK-OV-3 = test system: SK-OV-3
OVCAR-8 = test system: OVCAR-8
SK-MEL-5 = test system: SK-MEL-5
UACC-62 = test system: UACC-62
PC-3 = test system: PC-3
RXF 393 = test system: RXF 393

SMILES	GI50 (UACC-257)	GI50 (NCI-H226)	GI50 (SK-MEL-2)	GI50 (OVCAR-4)	GI50 (MCF7)	GI50 (LOX IMVI)	GI50 (HOP-62)	GI50 (NCI-H23)	GI50 (DU-145)	GI50 (T47D)	GI50 (HL-60)	GI50 (MOLT-4)	GI50 (ACHN)	GI50 (786-0)	GI50 (SK-OV-3)	GI50 (OVCAR-8)	GI50 (SK-MEL-5)	GI50 (UACC-62)	GI50 (PC-3)	GI50 (RXF 393)
COc1ccc2cc(CNCCCN3CCN(CCCNCc4ccc5cc(OC)ccc5c4)CC3)ccc2c1	2.22 µM (inactive)	1.91 µM (inactive)	1.93 µM (inactive)	1.96 µM (inactive)	1.35 µM (inactive)	0.55 µM (active)	1.65 µM (inactive)	1.91 µM (inactive)	1.54 µM (inactive)	1.32 µM (inactive)	0.24 µM (active)	0.859 µM (active)	1.8 µM (inactive)	1.55 µM (inactive)	1.42 µM (inactive)	1.73 µM (inactive)	1.69 µM (inactive)	0.569 µM (active)	0.966 µM (active)	1.46 µM (inactive)
CC(C)(C)OC(=O)N[C@H]1CC2(C=C(Cl)C(=O)C(Cl)=C2)OC1=O	13.8 µM (inactive)	> 59.7 µM (inactive)	19.1 µM (inactive)	16.3 µM (inactive)	6.79 µM (inactive)	13.2 µM (inactive)	> 58.9 µM (inactive)	17.3 µM (inactive)	27.9 µM (inactive)	14.9 µM (inactive)	2.13 µM (inactive)	2.48 µM (inactive)	14.6 µM (inactive)	14.9 µM (inactive)	> 46.5 µM (inactive)	17.1 µM (inactive)	19.1 µM (inactive)	16.5 µM (inactive)	17.1 µM (inactive)	10.1 µM (inactive)
O=C1NC(=O)C(C(CC(=O)c2ccc([N+](=O)[O-])cc2)c2ccccc2)C(=O)N1 (stereo not given)	> 100 µM (inactive)	> 100 µM (inactive)	> 100 µM (inactive)	> 100 µM (inactive)	13.5 µM (inactive)	20 µM (inactive)	> 100 µM (inactive)	20.7 µM (inactive)	> 100 µM (inactive)	20.5 µM (inactive)	> 100 µM (inactive)	73.3 µM (inactive)	> 100 µM (inactive)	> 100 µM (inactive)	> 100 µM (inactive)	> 100 µM (inactive)	41.6 µM (inactive)	77.1 µM (inactive)	55.8 µM (inactive)	2.77 µM (inactive)
CCN(CC)CCn1c2cc3c(cc2c(=O)c2cccnc21)OCO3	6.1 µM (inactive)	5.01 µM (inactive)	9.91 µM (inactive)	5.36 µM (inactive)	3.89 µM (inactive)	3.71 µM (inactive)	3.61 µM (inactive)	8.75 µM (inactive)	> 10 µM (inactive)	> 10 µM (inactive)	4.58 µM (inactive)	3.68 µM (inactive)	3.52 µM (inactive)	4.45 µM (inactive)	9.84 µM (inactive)	4.62 µM (inactive)	2.77 µM (inactive)	8.75 µM (inactive)	7.43 µM (inactive)	5.86 µM (inactive)
COc1cccc(C2c3cc4c(cc3OC(C)(N3CCCC3)C2C)OCO4)c1O (stereo not given)	5.05 µM (inactive)	4.49 µM (inactive)	4.98 µM (inactive)	13.3 µM (inactive)	3.47 µM (inactive)	4.82 µM (inactive)	7.98 µM (inactive)	3.05 µM (inactive)	3.52 µM (inactive)	12.1 µM (inactive)	2.71 µM (inactive)	6.64 µM (inactive)	11.3 µM (inactive)	4.71 µM (inactive)	3.44 µM (inactive)	7.87 µM (inactive)	2.57 µM (inactive)	4.6 µM (inactive)	3.32 µM (inactive)	2.89 µM (inactive)
